Source: patent EP0560274B1, “Antiherpes peptide derivatives having a ureido N-terminus” (priority 1992, dated 1993)
Like-named read-outs stand apart in the source and are kept apart here. *1 amine or outer side, *2 acyl side, *3 side chain or, on linkers, in order; H or OH if unused. Where a SMILES comes first, the peptide text is derived from it. [ ]: non-standard residue; d: D form. The star is where a group is joined. Gly(1-adamantyl) = N[C@H](C(=O)O)C12CC3CC(CC(C3)C1)C2; Asp(3,3-(CH2)4) = N[C@H](C(=O)O)C1(C(=O)O)CCCC1; tBuAla = CC(C)(C)C[C@H](N)C(=O)O; Tle = CC(C)(C)[C@H](N)C(=O)O; NH(3-pentyl) = CCC(CC)N*; Pyrrolidide = C1CCN(*)C1; X2 = CC(C)(C)CC(C)(C)N*; CO = O=C([*:1])[*:2]; X1 = CCCC1(N*)CCCC1; X4 = CCCC(CCC)N*

System: Herpes Simplex Virus (HSV-2)
Assay type: cell-based
Procedure: BHK-21/C13 cells (ATCC CCL 10) are incubated for two days in 150 cm^2 T-flasks (1.5 x 10^6 cells/flask) with alpha-MEM medium (Gibco Canada Inc., Burlington, Ontario, Canada) supplemented with 8% (v/v) fetal bovine serum (FBS, Gibco Canada Inc.). The cells are trypsinized and then transferred to fresh media in a 24 well plate to give 2.5 x 10^5 cells in 750 µL of media per well. The cells are incubated at 37° for a period of 6 h to allow them to adhere to the plate. Thereafter, the cells are washed once with 500 µL of alpha-MEM supplemented with 0.5% (v/v) FBS and then incubated with 750 µL of the same media (low serum) for 3 days. After this period of serum starvation, the low serum medium is removed and the cells are incubated in 500 µL of BBMT for 2 to 3 hours. {BBMT medium is described by P. Brazeau et al., Proc. Natl. Acad. Sci. USA, 79, 7909 (1982).} Thereafter, the cells are infected with HSV-2 (multiplicity of infection = 0.02 PFU/cell) in 100 µL of BBMT medium. (Note: The HSV-2 used was strain HG-52, see Y. Langelier and G. Buttin, J. Gen. Virol., 57, 21 (1981); the virus was stored at -80°.) Following 1 h of virus adsorption at 37°, the media is removed and the cells are washed with BBMT (3 X 250 µL). The cells in each well are incubated with or without (control) appropriate concentrations of the test agent dissolved in 200 µL of BBMT medium. After 29 h of incubation at 37°, the infected cells are harvested by first freezing the plate at -80°, followed by thawing. The cells in each well are scraped off the surface of the well with the help of the melting ice fragments. After complete thawing, the cell suspensions are collected and each well is rinsed with 150 µL of BBMT medium. The viral sample (suspension plus washing) is sonicated gently for 4 min at 4°. Cell debris are removed by centrifugation (1000 times gravity for 10 minutes at 4°). The supernatant is collected and stored at -80° until determination of viral titer.
Viral titration was performed by a modification of the colorimetric assay method of M. Langlois et al., Journal of Biological Standardization, 14, 201 (1986).
More specifically, in a similar manner as described above, BHK-21/C13 cells are trypsinized and transferred to fresh media in a 96 well microtiter plate to give 20,000 cells in 100 µL of media per well. The cells in the prepared plate are incubated at 37° for, 2 h. During that time, the viral sample is thawed and sonicated gently for 15 seconds, and log dilutions of the sample are prepared (1/5 sequential: 50 µL of the sample plus 200 µL of BBMT medium, sequential dilutions being done with a multichannel pipette.
On completion of the above 2 hour incubation of the BHK-21/C13 cells, the media is replaced with alpha-MEM medium supplemented with 3% (v/v) FBS. The cells are now ready to be infected with the various sample dilutions of virus. Aliquots (50 µL) of the various dilutions are transferred into the appropriate wells of the plate. The resulting infected cells are incubated for 2 days at 37°. Then 50 µL of a 0.15% (v/v) solution of neutral red dye in Hank's Balanced Salt Solution (pH 7.3, Gibco Canada Inc.) is added to each well. The prepared plate is incubated for 45 min at 37°. Medium from each well is then aspirated and the cells are washed once with 200 µL of Hank's Balanced Salt Solution. After the wash, the dye is released from the cells by the addition of 100 µL of a 1:1 mixture of 0.1 M Sorensen's citrate buffer (pH 4.2) and ethanol. {Sorensen's citrate buffer is prepared as follows: Firstly, a 0.1 M disodium citrate solution is prepared by dissolving citric acid monohydrate (21 g) in 1 N aqueous NaOH (200 mL) and adding sufficient filtered H2O to make 1 L. Secondly, the 0.1 M disodium citrate solution (61.2 mL) is mixed with 0.1 N aqueous HCl (38.8 mL) and the pH of the resulting solution is adjusted to 4.2 if necessary.} The mixture in the wells is subjected to a gentle vortex action to ensure proper mixing.

EC50 (29 h) | Compound | EC50 (concentration effecting 50% inhibition of virus replication, BHK-21/C13 cells infected with HSV-2 strain HG-52 (0.02 PFU/cell), 29 h incubation, colorimetric (neutral red) viral titration, read-out: EC50)
45 µM | CCCC1(NC(=O)N[C@H](C(=O)N[C@@H](CC(=O)N2CCCC2)C(=O)N[C@H](C(=O)N[C@@H](CC(C)(C)C)C(=O)OCC)C2(C(=O)O)CCCC2)C(C)(C)C)CCCC1 [(1-propylcyclopentyl)-NHC(O)-Tbg-Asp(pyrrolidino)-Asp(cyPn)-γMeLeu-OEt] ({X1-CO}-[Tle]D(Pyrrolidide)[Asp(3,3-(CH2)4)][tBuAla]-OEt) | 
190 µM | CCCC1(NC(=O)N[C@H](C(=O)N[C@@H](CC(=O)N2CCCC2)C(=O)N[C@H](C(=O)N[C@@H](CC(C)(C)C)C(=O)O)C2(C(=O)O)CCCC2)C(C)(C)C)CCCC1 [(1-propylcyclopentyl)NHCO-Tbg-Asp-(pyrrolidino)-Asp(cyPn)-γMeLeu-OH] ({X1-CO}-[Tle]D(Pyrrolidide)[Asp(3,3-(CH2)4)][tBuAla]-OH) | 
350 µM | CCC(CC)NC(=O)N[C@H](C(=O)N[C@@H](CC(=O)N1CCCC1)C(=O)N[C@H](C(=O)NCCC(C)(C)C)C1(C(=O)O)CCCC1)C(C)(C)C [Et2CHNHC(O)-Tbg-Asp(pyrrolidino)-Asp(cyPn)-NHCH2CH2CMe3] | 
270 µM | CCC(CC)NC(=O)N[C@H](C(=O)N[C@@H](CC(=O)N1CCCC1)C(=O)N[C@H](C(=O)NCC(C)(C)C)C1(C(=O)O)CCCC1)C(C)(C)C [Et2CHNHC(O)-Tbg-Asp(pyrrolidino)-Asp(cyPn)-NHCH2CMe3] | 
180 µM | CCC(CC)NC(=O)N[C@H](C(=O)N[C@@H](CC(=O)N1CCCC1)C(=O)N[C@H](C(=O)N[C@@H](CC(C)(C)C)C(=O)O)C1(C(=O)O)CCCC1)C(C)(C)C [Et2CHNHC(O)-Tbg-Asp(pyrrolidino)-Asp(cyPn)-γMeLeu-OH] ({NH(3-pentyl)-CO}-[Tle]D(Pyrrolidide)[Asp(3,3-(CH2)4)][tBuAla]-OH) | 
170 µM | CCC(CC)NC(=O)N[C@H](C(=O)N[C@@H](CC(=O)N1CCCC1)C(=O)N[C@H](C(=O)N[C@H](CO)CC(C)(C)C)C1(C(=O)O)CCCC1)C(C)(C)C [Et2CHNHCO-Tbg-Asp(pyrrolidino)-Asp(cyPn)-γMeLeucinol] | 
210 µM | CCCC(CCC)NC(=O)N[C@H](C(=O)N[C@@H](CC(=O)N1CCCC1)C(=O)N[C@H](C(=O)N[C@H](CO)CC(C)(C)C)C1(C(=O)O)CCCC1)C(C)(C)O [Pr2CHNHC(O)-NH-(S)-CH{C(CH3)2OH}-C(O)-Asp(pyrrolidino)-Asp(cyPn) γMeLeucinol] | 
106 µM | CCCC(CCC)NC(=O)N[C@H](C(=O)N[C@@H](CC(=O)N1CCCC1)C(=O)N[C@H](C(=O)NCC(C)(C)CC)C1(C(=O)O)CCCC1)C(C)(C)C [Pr2CHNHC(O)-Tbg-Asp(pyrrolidino)-Asp(cyPn)-NHCH2CMe2Et] | 
150 µM | CCCC(CCC)NC(=O)N[C@H](C(=O)N[C@@H](CC(=O)N1CCCC1)C(=O)N[C@H](C(=O)NCC(C)(C)C)C1(C(=O)O)CCCC1)C(C)(C)C [Pr2CHNHC(O)-Tbg-Asp(pyrrolidino)-Asp(cyPn)-NHCH2CMe3] | 
55 µM | CCCC(CCC)NC(=O)N[C@H](C(=O)N[C@@H](CC(=O)N1CCCC1)C(=O)N[C@H](C(=O)N[C@H](C)C(C)(C)C)C1(C(=O)O)CCCC1)C(C)(C)C [Pr2CHNHC(O)-Tbg-Asp(pyrrolidino)-Asp(cyPn)-NHCH-(R)-CH(Me)CMe3] | 
80 µM | CCCC(CCC)NC(=O)N[C@H](C(=O)N[C@@H](CC(=O)N1CCCC1)C(=O)N[C@H](C(=O)N[C@@H](CC(C)(C)C)C(=O)O)C1(C(=O)O)CCCC1)C(C)(C)C [Pr2CHNHC(O)-Tbg-Asp(pyrrolidino)-Asp(cyPn)-γMeLeu-OH] ({X4-CO}-[Tle]D(Pyrrolidide)[Asp(3,3-(CH2)4)][tBuAla]-OH) | 

More lines, now with the values behind:

Compound | EC50 (29 h) | EC50 (concentration effecting 50% inhibition of virus replication, BHK-21/C13 cells infected with HSV-2 strain HG-52 (0.02 PFU/cell), 29 h incubation, colorimetric (neutral red) viral titration, read-out: EC50)
CCC(CC)NC(=O)N[C@H](C(=O)N[C@@H](CC(=O)N1CCCC1)C(=O)N[C@H](C(=O)N[C@@H](CC(C)(C)C)C(=O)O)C1(C(=O)O)CCCC1)C12CC3CC(CC(C3)C1)C2 [Et2CHNHC(O)-NH-(S)-CH(adamantyl)-C(O)-Asp(pyrrolidino)-Asp(cyPn)-γMeLeu-OH] ({NH(3-pentyl)-CO}-[Gly(1-adamantyl)]D(Pyrrolidide)[Asp(3,3-(CH2)4)][tBuAla]-OH) | 170 µM | 
CCC(CC)NC(=O)N[C@H](C(=O)N[C@@H](CC(=O)N1CCCC1)C(=O)N[C@H](C(=O)N[C@H](CO)CC(C)(C)C)C1(C(=O)O)CCCC1)C12CC3CC(CC(C3)C1)C2 [Et2CHNHC(O)-NH-(S)-CH(adamantyl)-C(O)-Asp(pyrrolidino)-Asp(cyPn)-γMeLeucinol] | 170 µM | 
CCC(CC)NC(=O)N[C@H](C(=O)N[C@@H](CC(=O)N1CCCC1)C(=O)N[C@H](C(=O)N[C@@H](CC(C)C)C(=O)O)[C@H](C(=O)O)C(C)C)C(C)(C)C [Et2CHNHC(O)-Tbg-Asp(pyrrolidino)-Asp{(R)-iPr}-Leu-OH] | 300 µM | 
CCC(CC)NC(=O)N[C@H](C(=O)N[C@@H](CC(=O)N1CCCC1)C(=O)N[C@H](C(=O)N[C@@H](CC(C)(C)C)C(=O)O)[C@H](C(=O)O)C(C)C)C(C)(C)C [Et2CHNHC(O)-Tbg-Asp(pyrrolidino)-Asp{(R)-iPr}-γMeLeu-OH] | 190 µM | 
CCC(CC)NC(=O)N[C@H](C(=O)N[C@@H](CC(=O)N1CCCC1)C(=O)N[C@H](C(=O)N[C@H](CO)CC(C)(C)C)[C@H](C(=O)O)C(C)C)C(C)(C)C [Et2CHNHC(O)-Tbg-Asp(pyrrolidino)-Asp{(R)-iPr}-γMeLeucinol] | 140 µM | 
CCCC(CC)(CCC)NC(=O)N[C@H](C(=O)N[C@@H](CC(=O)N1CCCC1)C(=O)N[C@H](C(=O)N[C@H](CC)C(C)(C)C)C1(C(=O)O)CCCC1)C(C)(C)C [EtPr2CNHC(O)-Tbg-Asp(pyrrolidino)-Asp(cyPn)NH-(R)-CH(Et)CMe3] | 7 µM | 
CC(C)NC(=O)N[C@H](C(=O)N[C@@H](CC(=O)N1CCCC1)C(=O)N[C@H](C(=O)N[C@H](CO)CC(C)(C)C)C1(C(=O)O)CCCC1)C(C)(C)C [Me2CHNHC(O)-Tbg-Asp(pyrrolidino)-Asp(cyPn)-γMeLeucinol] | 700 µM | 
CC(C)(C)C[C@H](NC(=O)[C@@H](NC(=O)[C@H](CC(=O)N1CCCC1)NC(=O)[C@@H](NC(=O)NC(C)(C)CC(C)(C)C)C(C)(C)C)C1(C(=O)O)CCCC1)C(=O)O [Me3CCH2CMe2NHC(O)-Tbg-Asp(pyrrolidino)-Asp(cyPn)-γMeLeu-OH] ({X2-CO}-[Tle]D(Pyrrolidide)[Asp(3,3-(CH2)4)][tBuAla]-OH) |  | 110 µM
CCCC(C)(CCC)NC(=O)N[C@H](C(=O)N[C@@H](CC(=O)N1CCCC1)C(=O)N[C@H](C(=O)NCC(C)(C)C)C1(C(=O)O)CCCC1)C(C)(C)C [MePr2CNHC(O)-Tbg-Asp(pyrrolidino)-Asp(cyPn)-NHCH2CMe3] | 84 µM | 
CCCC(CCC)NC(=O)N[C@H](C(=O)N[C@@H](CC(=O)N1CCCC1)C(=O)N[C@H](C(=O)N[C@H](CO)CC(C)(C)C)C1(C(=O)O)CCCC1)C(C)(C)C(=O)O [Pr2CHNHC(O)-Asp(diMe)-Asp(pyrrolidino)-Asp(cyPn)-γMeLeucinol] | 170 µM | 
CCCC(CCC)NC(=O)N[C@H](C(=O)N[C@@H](CC(=O)N1CCCC1)C(=O)N[C@H](C(=O)N[C@H](CO)CC(C)(C)C)C1(C(=O)O)CCCC1)C(C)(C)S [Pr2CHNHC(O)-NH-(R)-CH{C(CH3)2SH}CO-Asp(pyrrolidino)-Asp(cyPn)-γMeLeucinol] | 290 µM | 
CCCC(CCC)NC(=O)N[C@H](C(=O)N[C@@H](CC(=O)C1CCC1)C(=O)N[C@H](C(=O)NCC(C)(C)C)C1(C(=O)O)CCCC1)C(C)(C)C [Pr2CHNHC(O)-Tbg-NH-(S)-CH(2-cyclobutyl-2-oxoethyl)C(O)-Asp(cyPn)-NHCH2CMe3] | 160 µM | 
